For orientation: inhibition means the relative decrease from the control value, in per cent.

Structures are written as SMILES.

The test system of the experiment is M. smegmatis MC^2 155 strain. Put plainly: Antitubercular activity: growth inhibition of M. smegmatis in 96 well microtiter plate (absorbance at 600 nm). The class given is cell-based, Mycobacterium smegmatis. The settings on record: Mycolicibacterium smegmatis, MC^2155, final concentration of compound 30 μM, 32 hrs, determined against DMSO, triplicate, read-out: Percentage inhibition. The method, then:
The compounds were tested for their Anti Mycobacterial ability on M. smegmatis MC^2 155 strain. The series of compounds were obtained in 10 mM stock concentrations. Further, each compound was diluted with the required 100% (v/v) DMSO to achieve a working concentration of 1.5 mM. The inoculum for the assay was prepared by reviving a glycerol stock in Middlebrook 7H9 broth supplemented with 0.1% Tween 80 and 0.5% Glycerol. At the time of inoculation, 10% ADS was added to the media and the culture was incubated in a shaker incubator at 37° C. and 200 rpm. The O.D. of the inoculum reached to 0.8-1 approximately, a secondary inoculum was inoculated and subsequently incubated. This was incubated overnight till the O.D. of the inoculum reached 0.4 approx., following which the inoculum was diluted 1:1000 times. In a 96 well microtiter plate, a 2 μL aliquot of the 1.5 mM dilution of compound was added to each well in triplicate, to which 98 μL of inoculum dilution was added, making the final concentration of compound 30 μM. To each plate a set of controls was added to better ascertain the activity of the compounds. These included DMSO, which was taken as a growth control, and media control (Blank) and Rifampicin and Isoniazid, which were taken as positive controls of inhibition of Mycobacterium smegmatis. After the completion of the period of 32 hrs, the absorbance of the inoculum in wells was measured at 600 nm using a Multi Mode Reader. Absorbance is considered directly proportional to the increase in growth of bacteria, thus it gives a measure of the growth of bacteria in each well. Percentage inhibition was determined against DMSO.
For `CN1C(=O)C(OC(=O)c2ccccc2F)(C(=O)NC(C)(C)C)c2ccccc21` (stereo not shown) [Compound 4b, 3-(tert-Butylcarbamoyl)-1-methyl-2-oxoindolin-3-yl 2-fluoro benzoate], the inhibition at 30 µM amounted to 24.6%.

`CC(C)(C)NC(=O)C1(OC(=O)c2ccccc2)C(=O)N(Cc2ccccc2)c2ccccc21` (stereo not shown) [Compound 4q, 1-Benzyl-3-(tert-Butylcarbamoyl)-2-oxoindolin-3-yl benzoate]: the inhibition at 30 µM came out at 42.9%. As to `COc1ccc(CC(=O)OC2(C(=O)NC(C)(C)C)C(=O)N(C)c3ccccc32)cc1` (stereo not shown), the inhibition at 30 µM is 44.2%. With `CN1C(=O)C(OC(=O)/C=C/c2ccccc2)(C(=O)NC(C)(C)C)c2ccccc21` (stereo not shown), the inhibition at 30 µM came to 7.04%.

Turning to `CN1C(=O)C(OC(=O)c2ccccc2Br)(C(=O)NC(C)(C)C)c2ccccc21` (stereo not shown) [Compound 4d, 3-(tert-butylcarbamoyl)-1-methyl-2-oxoindolin-3-yl 2-bromo benzoate], the inhibition at 30 µM came out at 17.3%. The result for `C=CCN1C(=O)C(OC(=O)c2ccccc2)(C(=O)NC(C)(C)C)c2ccccc21` (stereo not shown) [Compound 4r, 1-Allyl-3-(tert-Butylcarbamoyl)-2-oxoindolin-3-yl benzoate] reads 35.4%. The result for `CN1C(=O)C(OC(=O)c2cccc([N+](=O)[O-])c2)(C(=O)NC(C)(C)C)c2ccccc21` (stereo not shown) [Compound 4e, 3-(tert-Butylcarbamoyl)-1-methyl-2-oxoindolin-3-yl 3-nitro benzoate] reads -5.24%; that for `CN1C(=O)C(OC(=O)c2ccc([N+](=O)[O-])cc2)(C(=O)NC(C)(C)C)c2ccccc21` (stereo not shown) [Compound 4f, 3-(tert-Butylcarbamoyl)-1-methyl-2-oxoindolin-3-yl 4-nitro benzoate], 21.5%. The same measure for `CC(C)NC(=O)C1(OC(=O)c2ccccc2)C(=O)N(C)c2ccccc21` (stereo not shown): -5.24%. Take `CN1C(=O)C(OC(=O)c2cc3ccccc3[nH]2)(C(=O)NC(C)(C)C)c2ccccc21` (stereo not shown): the inhibition at 30 µM was 9%. The result for `CN1C(=O)C(OC(=O)c2cccs2)(C(=O)NC(C)(C)C)c2ccccc21` (stereo not shown) [Compound 4i, 3-(tert-Butylcarbamoyl)-1-methyl-2-oxoindolin-3-yl thiophene-2-carboxylate] reads 30.8%; that for `CN1C(=O)C(OC(=O)c2ccccc2)(C(=O)NC(C)(C)C)c2cc(Br)ccc21` (stereo not shown) [Compound 4w, 5-Bromo-3-(tert-Butylcarbamoyl)-1-methyl-2-oxoindolin-3-yl benzoate], 23.4%. The same measure for `CN1C(=O)C(OC(=O)c2ccccc2)(C(=O)NC(C)(C)C)c2cc(Cl)ccc21` (stereo not shown) [Compound 4v, 3-(tert-Butylcarbamoyl)-5-chloro-1-methyl-2-oxoindolin-3-yl benzoate]: 9.49%; for `CN1C(=O)C(OC(=O)c2ccccn2)(C(=O)NC(C)(C)C)c2ccccc21` (stereo not shown): 5.24%; for `CN1C(=O)C(OC(=O)c2ccco2)(C(=O)NC(C)(C)C)c2ccccc21` (stereo not shown) [Compound 4h, 3-(tert-Butylcarbamoyl)-1-methyl-2-oxoindolin-3-yl furan-2-carboxylate]: 24.1%. The same measure for `CCOC(=O)CNC(=O)C1(OC(=O)c2ccccc2)C(=O)N(C)c2ccccc21` (stereo not shown): 14.7%. On to `COc1ccc(C(=O)OC2(C(=O)NC(C)(C)C)C(=O)N(C)c3ccccc32)cc1` (stereo not shown) [Compound 4g, 3-(tert-Butylcarbamoyl)-1-methyl-2-oxoindolin-3-yl 4-methoxy benzoate], for which the inhibition at 30 µM was determined as 43.5%. The result for `CN1C(=O)C(OC(=O)c2ccccc2)(C(=O)NC2CCCCC2)c2ccccc21` (stereo not shown) reads -8.02%. The same measure for `CN1C(=O)C(OC(=O)c2ccccc2)(C(=O)NC(C)(C)C)c2ccccc21` (stereo not shown) [Compound 4a, 3-(tert-Butylcarbamoyl)-1-methyl-2-oxoindolin-3-yl benzoate]: 18.6%; for `CC(C)(C)NC(=O)C1(OC(=O)c2ccccc2)C(=O)Nc2ccccc21` (stereo not shown) [Compound 4s, 3-(tert-Butylcarbamoyl)-2-oxoindolin-3-yl benzoate]: 19.1%.

Take `CN1C(=O)C(OC(=O)c2ccccc2)(C(=O)NC(C)(C)C)c2cc(F)ccc21` (stereo not shown) [Compound 4u, 3-(tert-Butylcarbamoyl)-5-fluoro-1-methyl-2-oxoindolin-3-yl benzoate]: the inhibition at 30 µM was 5.24%. The result for `CC(=O)OC1(C(=O)NC(C)(C)C)C(=O)N(C)c2ccccc21` (stereo not shown) [Compound 4n, 3-(tert-Butylcarbamoyl)-1-methyl-2-oxoindolin-3-yl acetate] reads 19.6%; that for `CCC(=O)OC1(C(=O)NC(C)(C)C)C(=O)N(C)c2ccccc21` (stereo not shown) [Compound 4o, 3-(tert-Butylcarbamoyl)-1-methyl-2-oxoindolin-3-yl propionate], -1.64%; that for `CN1C(=O)C(OC(=O)c2cc3ccccc3o2)(C(=O)NC(C)(C)C)c2ccccc21` (stereo not shown), 26.4%. `CN1C(=O)C(OC(=O)c2ccccc2Cl)(C(=O)NC(C)(C)C)c2ccccc21` (stereo not shown) [Compound 4c, 3-(tert-Butylcarbamoyl)-1-methyl-2-oxoindolin-3-yl 2-chloro benzoate]: the inhibition at 30 µM stood at 42.7%.

The record behind these values is US9783496B2, “Oxindole compounds, solvent-free synthesis and use thereof” (Council of Scientific & Industrial Research, priority 2013, dated 2017).
